From patent publication US20250230147A1, “LACTAMS AS CBL-B INHIBITORS” (Genentech, Inc., priority 2021, published 2025)

Tests used:
Cbl-b = Cbl-b (Homo sapiens (Human), UniProt Q13191); assay: Cbl-b LCK Ub TR-FRET assay (Cbl-b Lck HTRF); format: biochemical
Protocol: Compounds were 3-fold serially diluted in DMSO in a 384-well polypropylene plate (#P-05525-BC; Labcyte) to generate a source plate with 10 concentrations of each compound, top concentration=2 mM. 80 nL of DMSO or compounds were transferred to each well of a black 384-well ProxiPlate (#6008260; PerkinElmer) using a Labcyte Echo. 1×assay buffer (50 mM HEPES pH7.0, 100 mM NaCl, 0.01% BSA, 0.01% Triton-X100, 1 mM DTT), 2×enzyme solution (16 nM Biotin-Cbl-b or 12 nM Biotin-c-Cbl in 1× assay buffer), 2×kinase mixture (120 nM His-LCK, 1 mM ATP, 10 mM MgCl2 in assay buffer) and 2.33×detection mixture (4.66×solution 1: 163 nM Anti-HA-D2 antibody (#610HADAB; PerkinElmer), 27.96 nM Streptavidin-EU (#AD0062; PerkinElmer), 1.398 mM EDTA in 1×assay buffer+4.66×solution 2: 2.796 μM UBE2D2/Methylated-HA-Ubiquitin thioester adduct (BostonBiochem) in 1×assay buffer) were prepared. 4 μL of 2× enzyme solution was added to each well containing compound, briefly centrifuged to mix, and incubated for 60 min at room temperature. 4 μL of 2× kinase mixture was added, briefly centrifuged to mix, and incubated for 90 min. at room temperature. 6 μL of detection mixture was added to all wells and briefly centrifuged before incubating for 20 min at room temperature. Plates were read for TR-FRET using an Envision at excitation 340 nm, emission at 615 and 665 nm, 4 flashes per well. IC50 was generated using no LCK as the low control and DMSO as the high control.
Cbl-b Lck HTRF data in Table 7 is measured according to Example 76 herein; C-cbl Lck HTRF data is measured according to Example 76 herein.

c-Cbl = c-Cbl (Homo sapiens (Human), UniProt P22681); assay: C-Cbl LCK Ub TR-FRET assay (c-cbl Lck HTRF); format: biochemical; settings: for (fold-selectivity): C-cbl Lck HTRF IC50 relative to Cbl-b Lck HTRF IC50
Protocol: 6 μL of detection mixture was added to all wells and briefly centrifuged before incubating for 20 min at room temperature. […] IC50 was generated using no LCK as the low control and DMSO as the high control.

Cbl-b, sequence (Q13191 40-426): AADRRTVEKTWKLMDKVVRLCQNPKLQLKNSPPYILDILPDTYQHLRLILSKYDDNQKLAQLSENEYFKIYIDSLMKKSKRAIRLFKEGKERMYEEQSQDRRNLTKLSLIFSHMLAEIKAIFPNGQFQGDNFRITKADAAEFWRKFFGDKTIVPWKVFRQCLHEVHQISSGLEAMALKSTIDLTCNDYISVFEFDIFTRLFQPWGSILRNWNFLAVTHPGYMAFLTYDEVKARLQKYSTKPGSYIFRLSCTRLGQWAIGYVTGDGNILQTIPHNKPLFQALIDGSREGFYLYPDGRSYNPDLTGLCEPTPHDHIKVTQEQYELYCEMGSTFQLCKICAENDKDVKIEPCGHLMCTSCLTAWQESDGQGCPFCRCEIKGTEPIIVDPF
c-Cbl, sequence (P22681 47-435): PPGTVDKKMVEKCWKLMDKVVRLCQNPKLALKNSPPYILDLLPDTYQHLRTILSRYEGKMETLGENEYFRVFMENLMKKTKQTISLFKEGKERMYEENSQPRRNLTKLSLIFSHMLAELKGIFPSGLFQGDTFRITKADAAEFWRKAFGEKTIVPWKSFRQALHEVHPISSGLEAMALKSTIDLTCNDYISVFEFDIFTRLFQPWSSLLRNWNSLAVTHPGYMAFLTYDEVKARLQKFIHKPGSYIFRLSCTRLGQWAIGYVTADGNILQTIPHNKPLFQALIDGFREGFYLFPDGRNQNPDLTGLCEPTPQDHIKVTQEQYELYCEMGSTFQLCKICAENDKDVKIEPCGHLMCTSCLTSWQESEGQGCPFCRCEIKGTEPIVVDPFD

| SMILES | IC50 (Cbl-b) [nM] | IC50 (c-Cbl) [nM] | (fold-selectivity) (c-Cbl) |
| --- | --- | --- | --- |
| Cn1cnnc1CC1(c2cccc(N3Cc4c(cc(CNC5(C)CCC5)cc4C(F)(F)F)C3=O)c2)CS(=O)(=O)C1 [Compound 242, 2-(3-(3-((4-methyl-4H-1,2,4-triazol-3-yl)methyl)-1,1-dioxido-thietan-3-yl)phenyl)-6-(((1-methylcyclobutyl)amino)methyl)-4-(trifluoromethyl)isoindolin-1-one] | 31 | 41 | (1.3x) |
| Cn1cnnc1C[C@]1(c2cccc(N3Cc4c(cc(CNC5(C)CCC5)cc4C(F)(F)F)C3=O)c2)C[C@H](C#N)C1 [Compound 467, (1r,3r)-3-((4-methyl-4H-1,2,4-triazol-3-yl)methyl)-3-(3-(6-(((1-methylcyclobutyl)amino)methyl)-1-oxo-4-(trifluoromethyl)isoindolin-2-yl)phenyl)cyclobutanecarbonitrile] | 12 | 11 | (0.89x) |
| Cn1cnnc1C(F)(F)C1(c2cccc(N3Cc4c(cccc4C(F)(F)F)C3=O)c2)CC(F)(F)C1 [Compound 253, 2-(3-(1-(difluoro(4-methyl-4H-1,2,4-triazol-3-yl)methyl)-3,3-difluorocyclobutyl)phenyl)-4-(trifluoromethyl)isoindolin-1-one] | 1400 | 3400 | (2.6x) |
| CC[C@H]1CN(C)CCN1Cc1cc2c(c(C(F)(F)F)c1)CN(c1cccc(C3(Cc4nncn4C)CC(F)(F)C3)c1)C2=O [Compound 401, (S)-2-(3-(3,3-difluoro-1-((4-methyl-4H-1,2,4-triazol-3-yl)methyl)cyclobutyl)phenyl)-6-((2-ethyl-4-methylpiperazin-1-yl)methyl)-4-(trifluoromethyl)isoindolin-1-one] | 29 | 27 | (0.95x) |
| Cn1cnnc1CC1(c2cc(C3CCC3)nc(N3Cc4c(cccc4C(F)(F)F)C3=O)c2)COC1 [Compound 265, 2-(6-cyclobutyl-4-(3-((4-methyl-4H-1,2,4-triazol-3-yl)methyl)oxetan-3-yl)pyridin-2-yl)-4-(trifluoromethyl)isoindolin-1-one] | 880 | 1300 | (1.4x) |
| CC(C)[C@@H]1CN(Cc2cc3c(c(C(F)(F)F)c2)CN(c2cccc(C4([C@H](F)c5nncn5C)COC4)c2)C3=O)CCN1 [Compound 93, 2-(3-(3-((S)-fluoro(4-methyl-4H-1,2,4-triazol-3-yl)methyl)oxetan-3-yl)phenyl)-6-(((R)-3-isopropylpiperazin-1-yl)methyl)-4-(trifluoromethyl)isoindolin-1-one] | 68 | 78 | 1.1x |
| CCOc1cc(C2(Cc3nncn3C)CCC2)cc(N2Cc3c(cc(CN4CCN(C)C[C@@H]4C(C)C)cc3C(F)(F)F)C2=O)n1 [Compound 404, (S)-2-(6-ethoxy-4-(1-((4-methyl-4H-1,2,4-triazol-3-yl)methyl)cyclobutyl)pyridin-2-yl)-6-((2-isopropyl-4-methylpiperazin-1 - yl)methyl)-4-(trifluoromethyl)isoindolin-1-one] | 10 | 5.4 | (0.54x) |
| Cn1cnnc1CC1(c2cccc(N3Cc4c(cc(CN5CCNCC5)cc4C(F)(F)F)C3=O)c2)CC(F)(F)C1 [Compound 437, 2-(3-(3,3-difluoro-1-((4-methyl-4H-1,2,4-triazol-3-yl)methyl)cyclobutyl)phenyl)-6-(piperazin-1-ylmethyl)-4-(trifluoromethyl)isoindolin-1-one] | 62 | 900 | (0.97x) |
| C[C@@H]1CN(Cc2cc3c(c(C(F)(F)F)c2)CN(c2cccc(C4(Cc5nncn5C)CC(F)(F)C4)c2)C3=O)CCN1 [Compound 424, (R)-2-(3-(3,3-difluoro-1-((4-methyl-4H-1,2,4-triazol-3-yl)methyl)cyclobutyl)phenyl)-6-((3-methylpiperazin-1-yl)methyl)-4-(trifluoromethyl)isoindolin-1-one] | 42 | 31 | (0.73x) |
| COc1cccc2c1CN(c1cccc(C3([C@@H](F)c4nncn4C)COC3)c1)C2=O [Compound 206, (R)-2-(3-(3-(fluoro(4-methyl-4H-1,2,4-triazol-3-yl)methyl)oxetan-3-yl)phenyl)-4-methoxyisoindolin-1-one] | 1500 | 2300 | 1.5x |
| Cn1cnnc1[C@@H](F)C1(c2cccc(N3Cc4c(cc(CN5CCC6(CC6)C5)cc4C(F)(F)F)C3=O)c2)CC1 [Compound 28, (S)-6-(5-azaspiro[2.4]heptan-5-ylmethyl)-2-(3-(1-(fluoro(4-methyl-4H-1,2,4-triazol-3-yl)methyl)cyclopropyl)phenyl)-4-(trifluoromethyl)isoindolin-1-one] | 80 | 180 | 2.2x |
| CC(=O)N1CCN(Cc2cc3c(c(C(F)(F)F)c2)CN(c2cccc(C4([C@@H](F)c5nncn5C)COC4)c2)C3=O)[C@@H](C(C)C)C1 [Compound 193, 6-(((S)-4-acetyl-2-isopropylpiperazin-1-yl)methyl)-2-(3-(3-((R)-fluoro(4-methyl-4H-1,2,4-triazol-3-yl)methyl)oxetan-3-yl)phenyl)-4-(trifluoromethyl)isoindolin-1-one] | 72 | 190 | 2.6x |
| Cn1cnnc1CC1(c2cccc(N3Cc4c(cc(CN5CCN[C@H](C6CC6)C5)cc4C(F)(F)F)C3=O)c2)CC(F)(F)C1 [Compound 430, (R)-6-((3-cyclopropylpiperazin-1-yl)methyl)-2-(3-(3,3-difluoro-1-((4-methyl-4H-1,2,4-triazol-3-yl)methyl)cyclobutyl)phenyl)-4-(trifluoromethyl)isoindolin-1-one] | 43 | 35 | (0.80x) |
| Cn1cnnc1CC1(c2cc(NC34CCC(C3)C4)nc(N3Cc4c(cccc4C(F)(F)F)C3=O)c2)COC1 [Compound 493, 2-(6-(bicyclo[2.1.1]hexan-1-ylamino)-4-(3-((4-methyl-4H-1,2,4-triazol-3-yl)methyl)oxetan-3-yl)pyridin-2-yl)-4-(trifluoromethyl)isoindolin-1-one] | 630 | 4500 | (6.9x) |
| Cn1cnnc1C[C@]1(c2cccc(N3Cc4c(cc(CNC5(C)CCC5)cc4C(F)(F)F)C3=O)c2)C[C@@H](C#N)C1 [Compound 468, (1s,3s)-3-((4-methyl-4H-1,2,4-triazol-3-yl)methyl)-3-(3-(6-(((1 - methylcyclobutyl)amino)methyl)-1-oxo-4-(trifluoromethyl)isoindolin-2-yl)phenyl)cyclobutanecarbonitrile] | 15 | 15 | (1.0x) |
| Cn1cnnc1CC1(c2cc(OCc3ccccc3)nc(N3Cc4c(cc(CNC5(C)CCC5)cc4C(F)(F)F)C3=O)c2)CCC1 [Compound 360, 2-(6-(benzyloxy)-4-(1-((4-methyl-4H-1,2,4-triazol-3-yl)methyl)cyclobutyl)pyridin-2-yl)-6-(((1-methylcyclobutyl)amino)methyl)-4-(trifluoromethyl)isoindolin-1-one] | 20 | 17 | (0.86x) |
| CC(C)[C@H]1CN(C)CCN1Cc1cc2c(c(C(F)(F)F)c1)CN(c1cccc(C3([C@@H](F)c4nncn4-c4ccccc4)COC3)c1)C2=O [Compound 259, 2-(3-(3-((R)-fluoro(4-phenyl-4H-1,2,4-triazol-3-yl)methyl)oxetan-3-yl)phenyl)-6-(((S)-2-isopropyl-4-methylpiperazin-1-yl)methyl)-4-(trifluoromethyl)isoindolin-1-one] | 3100 | 3100 | (1.0x) |
| Cn1cnnc1CC1(c2cccc(N3Cc4c(cc(CN5CC[C@H](CCl)C5)cc4C(F)(F)F)C3=O)c2)COC1 [Compound 102, (S)-6-((3-(chloromethyl)pyrrolidin-1-yl)methyl)-2-(3-(3-((4-methyl-4H-1,2,4-triazol-3-yl)methyl)oxetan-3-yl)phenyl)-4-(trifluoromethyl)isoindolin-1-one] | 18 | 25 | 1.4x |
| Cn1cnnc1[C@H](F)C1(c2cccc(N3Cc4c(cc(CN5CC6(COC6)C5)cc4C(F)(F)F)C3=O)c2)COC1 [Compound 9, (R)-6-(2-oxa-6-azaspiro[3.3]heptan-6-ylmethyl)-2-(3-(3-(fluoro(4-methyl-4H-1,2,4-triazol-3-yl)methyl)oxetan-3-yl)phenyl)-4-(trifluoromethyl)isoindolin-1-one] | 160 | 350 | 2.1x |
